From US8735353B2, “Polypeptides and uses thereof” (priority 2009, dated 2014)

Tests used:
RAW 264.7 macrophages = assay: LPS effects on macrophages in vitro, NO production (Griess reaction); format: cell-based, mouse; settings: for effect on NO production of LPS-stimulated macrophages: RAW 264.7, LPS
Protocol: 3.5×10^5 cells were seeded in 96-well tissue culture plates (Nunc, 167008) in phenol red-free DMEM (Gibco) supplemented with 10% FBS and antibiotics. Following 6 hours of incubation to permit adherence, cells were stimulated with 100 or 10 ng/mL E. coli (0111:B4) or P. aeruginosa LPS (Sigma), with and without peptide of various doses. The levels of NO in culture supernatants were determined after 24 hours from stimulation using the Griess reaction [38]. Briefly, nitrite, a stable product of NO degradation, was measured by mixing 50 μl of culture supernatants with the same volume of Griess reagent (Sigma, G4410) and reading absorbance at 550 nm after 15 min. Phenol-red free DMEM with FBS and antibiotics were used as a blank. A standard curve was prepared using 0-80 μM sodium nitrite solutions in ddH2O.
3.5×10^5 RAW 264.7 cells were seeded in 96-well tissue culture plates (Nunc no. 167008) in phenol red-free DMEM (Gibco) supplemented with 10% FBS containing 1% Anti-Anti (Invitrogen). […] The level of NO in culture supernatants was determined after a period of 20 hours using the Griess reaction (27)ref. Briefly, Nitrite, a stable product of NO degradation, was measured by mixing 50 μl of culture supernatants with the same volume of Griess reagent (Sigma, G4410), and reading absorbance at 550 nm after 15 min. Phenol-red free DMEM with FBS and antibiotics were used as a blank. A standard curve was prepared using sodium nitrite at 0-80 μM in ddH2O.
3.5×10^5 cells were seeded in 96-well tissue culture plates (Nunc, 167008) in phenol red-free DMEM (Gibco) supplemented with 10% FBS and antibiotics. […] The levels of NO in culture supernatants were determined after 24 hours from stimulation using the Griess reaction [25]. Briefly, nitrite, a stable product of NO degradation, was measured by mixing 50 μl of culture supernatants with the same volume of Griess reagent (Sigma, G4410) and reading absorbance at 550 nm after 15 min. […]

human citrate plasma = assay: Clotting assays in plasma (aPTT, PT, TCT); format: biochemical; settings: 20 μM peptide
Protocol: (§1) All clotting times were analyzed using a coagulometer (Amelung, Lemgo, Germany). […] (PT-thromboplastin reagent (Trinity Biotech), TCT: Thrombin reagent (Technoclone)). To record the activated partial thromboplastin time (aPTT), 100 μl of a kaolin-containing solution (Technoclone) was add to the plasma-peptide mix and incubated for 200 sec before clot formation was initiated by adding 100 μl of 30 mM fresh CaCl2 solution. […] Cells were washed and resuspended in 100 μl PBS. Hundred microliter of fresh human citrate plasma were reconstituted with 100 μl of fresh 30 mM CaCl2 solution and pre-warmed for 60 sec. The clot formation was started by adding the hPBMNC. The same procedure was used to determine clotting times for whole blood.

LPS-induced shock = assay: LPS model in vivo, E. coli LPS (Example B); set-up: species or system C57BL/6 mice
Protocol: Male C57BL/6 mice (8 weeks, 21+/−5 g), were injected intraperitoneally with 18 mg E. coli 0111:B4 LPS or 36 mg P. aeruginosa LPS (Sigma) per kg of body weight. […] Survival and status was followed during seven days. For SEM and histochemistry, mice were sacrificed 20 h after LPS challenge, and lungs, liver, kidney, and spleen were removed and fixed. For determination of cytokine levels in mouse plasma, animals were sacrificed 8 h and 20 h after LPS injection. The blood was collected immediately by cardiac puncture. These experiments were approved by the Laboratory Animal Ethics Committee of Malmö/Lund.
Mouse blood (anti-coagulated with EDTA) was taken by cardiac puncture and analysed with the VetScan HM5 System (TRIOLAB). The number of white blood cells, percentages of lymphocytes, neutrophils, monocytes and platelets were determined.
(§2) The cytokines IL-6, IL-10, MCP-1, INF-γ, and TNF-α were measured in cell culture supernatants from RAW264.7 cells and plasma from mice injected with LPS or P. aeruginosa (with or without peptide treatment) using the Cytometric bead array; Mouse Inflammation Kit (Becton Dickinson AB) according to the manufacturer's instructions. All plasma samples were stored at −20° C. before the analysis.
For scanning electron microscopy lungs were taken 20 h after LPS injection. […] Specimens were washed with cacodylate buffer, and dehydrated with an ascending ethanol series from 50% (vv) to absolute ethanol. The specimens were then subjected to critical-point drying in carbon dioxide, with absolute ethanol as intermediate solvent, mounted, on aluminium holders, sputtered with 30 nm palladium/gold and examined in a JEOL JSM-350 scanning electron microscope

human monocytes = assay: Clotting time, LPS-stimulated human monocytes added to citrate plasma; format: cell-based; settings: concentrations similar to physiological thrombin (1.5 μM)
Protocol: Whole blood was incubated with 10 ng/ml E. coli LPS+/−the indicated concentrations of peptide. The clotting reaction in human citrated plasma was initiated by adding the blood cells. […] Human monocytes were stimulated with LPS and/or peptides, and the clotting times were determined by adding the treated cells to human citrate plasma supplemented with CaCl2
as §1

RAW 264.7 cells = assay: Cytokine release from LPS-stimulated RAW 264.7 cells; format: cell-based, mouse; settings: 10 ng/ml E. coli LPS
Protocol: RAW 264.7 cells were stimulated with 10 ng/ml E. coli LPS and cytokines were analysed in the cell supernatants.
as §2

[1] = test system: human peripheral blood monocytes; assay: TNF-α assay in human peripheral blood monocytes; format: cell-based; settings: 10 ng/ml E. coli LPS
Protocol: Cell supernatants were collected and stored at −20° C. […] Plasma was obtained by centrifuging at 400 g, 10 min and stored at −20° C. The TNF-α level was measured using a human TNF-Elisa Kit (Invitrogen).

E. coli = assay: Radial diffusion assay (RDA); format: cell-based
Protocol: Essentially as described earlier, bacteria were grown to mid-logarithmic phase in […] of full-strength (3% w/v) trypticase soy broth (TSB) (Becton-Dickinson). The microorganisms were then washed once with 10 mM Tris, pH 7.4. Subsequently, 4×10^8 cfu were added to 15 ml of the underlay agarose gel, consisting of 0.03% (w/v) TSB, 1% (w/v) low electroendosmosis type (EEO) agarose (Sigma-Aldrich) and 0.02% (v/v) Tween 20 (Sigma-Aldrich). The underlay was poured into a Ø 144 mm petri dish. After agarose solidification, 4 mm-diameter wells were punched and 6 μl peptide solution of required concentration added to each well. Plates were incubated at 37° C. for 3 h to allow peptide diffusion. The underlay gel was then covered with 15 ml of molten overlay (6% TSB and 1% Low-EEO agarose in distilled H2O). Antimicrobial activity of a peptide was visualized as a zone of clearing around each well after 18-24 h of incubation at 37° C.
Essentially as described earlier bacteria were grown to mid-logarithmic phase in 10 ml of full-strength (3% w/v) trypticase soy broth (TSB) (Becton-Dickinson, Cockeysville, Md.). The microorganisms were then washed once with 10 mM Tris, pH 7.4. […]

E. coli ATCC 25922 = assay: Viable count assay; format: cell-based; settings: E. coli ATCC 25922, proteins and peptides at 3 and 6 μM
Protocol: E. coli bacteria were grown to mid-logarithmic phase in Todd-Hewitt (TH) medium. They were then washed and diluted in 10 mM Tris, pH 7.4 containing 5 mM glucose. […] To quantify the bactericidal activity, serial dilutions of the incubation mixtures were plated on TH agar, followed by incubation at 37° C. overnight and the number of colony-forming units was determined. 100% survival was defined as total survival of bacteria in the same buffer and under the same condition in the absence of peptide.
E. coli ATCC 25922 bacteria were grown to mid-logarithmic phase in Todd-Hewitt (TH) medium. Bacteria were washed and re-suspended in 10 mM Tris, pH 7.4 containing 5 mM glucose. […] Serial dilutions of the incubation mixtures were plated on TH agar, followed by incubation at 37° C. overnight and cfu determination.
E. coli ATCC 25922 bacteria were grown to mid-logarithmic phase in Todd-Hewitt (TH) medium (Becton and Dickinson, Maryland, USA). The microorganisms were then washed and diluted in 10 mM Tris, pH 7.4 containing 5 mM glucose. […] To quantify the bactericidal activity, serial dilutions of the incubation mixtures were plated on TH agar, followed by incubation at 37° C. overnight and the number of colony-forming units was determined. […] Significance was determined using the statistical software SigmaStat (SPSS Inc., Chicago, Ill., USA).

## HVFRLKKWIQKVIDQFGE (HVF18) [endogenously produced C-terminal thrombin peptide]
RAW 264.7 macrophages; RAW 264.7, 10 ng/ml LPS
  concentration completely eliminating LPS-induced NO-responses: much higher doses
Human citrate plasma
  activated partial thromboplastin time (aPTT): significantly prolong
  prothrombin time (PT): not significantly affected
  thrombin clotting time (TCT): not significantly affected
LPS-induced shock; 0.5 mg peptide, followed 7 days
  weight: full recovery of weight
LPS-induced shock; 18 mg/kg E. coli LPS i.p., 0.5 mg peptide 30 minutes later
  survival in LPS-induced shock: 100%
LPS-induced shock; 8 and 20 h after LPS injection, 0.5 mg peptide
  proinflammatory IL-6, IFN-γ, TNF-α, MCP-1 in blood: significant reductions
LPS-induced shock; 8 and 20 h after LPS, 0.5 mg peptide
  platelet counts: significantly increased platelets
LPS-induced shock; 8 h after LPS injection
  IL-10 in blood: increase in IL-10
Human monocytes
  clotting time with LPS-stimulated monocytes (TF-mediated coagulation): less potent
RAW 264.7 cells
  effect on IL-10: significant up-regulation of IL-10
RAW 264.7 cells; peptide 10 μM
  effect on cytokines at 10 μM: not
[1]
  TNF-α production: damped TNF-α production

## VFRLKKWIQKVI (12-mer thrombin-derived peptide) [VFR12]
E. coli; E. coli ATCC 25922, 0.15M NaCl, peptide at 100 μM
  bactericidal potency in RDA at high salt: retained good bactericidal potency
RAW 264.7 macrophages
  effect on NO production of LPS-stimulated macrophages: not able to block LPS effects

## VFRLKKWIQKVIDQFGE (VFR17)
E. coli ATCC 25922
  antibacterial activity in viable count assay: significant antibacterial activities

## WFFFYYLIIGGGVVTHQQRKKKKDE (WFF25 peptide) [control peptide, same composition as GKY25, amino acids sorted after hydrophobicity, reference compound]
RAW 264.7 macrophages
  effect on NO production of LPS-stimulated macrophages: did not show anti-inflammatory effects
LPS-induced shock; 500 μg i.p., followed 7 days
  survival in LPS-induced shock: does not increase survival

## thrombin
E. coli; E. coli, low-salt conditions, not digested with neutrophil elastase
  antimicrobial activity of intact protein in RDA: inactive
